In PubChem BioAssay (NCI) one finds TGI data, which are given here for 17 compounds.

Each structure is given as a SMILES string.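 Test compounds were applied to cells in 96-well plates for 48 hours at 5 doses. TGI denotes the concentration required for complete inhibition of growth.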 Some results are limits rather than exact numbers.

Holding throughout (experiment): growth of human tumour cells (NCI), 48 h
The subject of assay [1] is MOLT-4 leukemia.
Assay [2] has as its system EKVX NSCLC.
Assay [3] relates to M19-MEL melanoma.
The subject of assay [4] is SK-MEL-2 melanoma.
The subject of assay [5] is SN12C renal.
In assay [6] the test system is LXFL 529 NSCLC.
Assay [7] has as its system SF-268 CNS.
For assay [8], the system named is HT29 colon.
The subject of assay [9] is HOP-92 NSCLC.

`CC1=NNC(=O)C2CCC(=O)N12` (stereo not given): the TGI in [1], in assay [2], in assay [3], in assay [4], in assay [5] and in assay [6] was greater than 100 µM throughout. The same compound yielded a TGI in assay [7] greater than 100 µM.
Turning to `Cc1ccc(Cc2c(=O)[nH]nc3ccccc23)cc1`, the TGI in assay [1], in [2], in [3], in assay [4], in assay [5] and in assay [8] was greater than 100 µM throughout. Moreover, the TGI in [9] and in assay [7] was greater than 100 µM throughout.
`CC1(C)COC(c2cccnc2/C=N/O)=N1`: the TGI in assay [1], in assay [2], in [3], in assay [4], in [5] and in assay [6] was greater than 100 µM throughout. The TGI in [8], in assay [9] and in assay [7] was greater than 100 µM throughout.
For `O=[N+]([O-])c1ccc(C2=Nn3cnnc3SC2)o1`, the TGI in assay [1] was 43.2 µM; in [3], 13.8 µM; in assay [4], 50.7 µM; in [5] it was 30.1 µM; in assay [6], 26.4 µM; in assay [8] it was 28.2 µM. Besides, the results for the TGI in assay [9] and in [7] were 49.4 µM and 58.2 µM, respectively.
On to `N#CC(N)(C(=O)CCC(=O)Nc1cccc(Cl)c1)c1ccc(Cl)cc1` (stereo not given), for which the TGI in assay [1], in assay [2], in assay [3], in [4], in assay [5] and in [6] was greater than 100 µM throughout. The TGI in [8], in assay [9] and in [7] was greater than 100 µM each time.
On to `N#Cc1nc(Nc2cccc3ccccc23)sc1N`, for which the TGI in [1] was greater than 100 µM; in assay [3] it was greater than 100 µM; in assay [4] it was 79.2 µM; in assay [5], greater than 100 µM; in assay [6], greater than 100 µM; in assay [8] it was greater than 100 µM. For the same compound, the TGI is 52.3 µM in [9] and greater than 100 µM in assay [7].
Consider `COC(=O)C1=C(O)c2cc(OC)c(OC)cc2C(c2ccc(OC)c(OC)c2)C1` (stereo not given), for which the TGI in [1], in assay [2], in assay [3], in assay [4], in [5] and in assay [6] was greater than 100 µM in each case. In addition, the TGI in assay [8], in [9] and in assay [7] was greater than 100 µM in each case.
For the compound `CCCCC(C(=O)C(=O)NC1C2CC3CC(C2)CC1C3)C(=O)C(C)C` (stereo not given), the TGI in assay [1], in assay [2], in [3], in assay [4], in [5] and in assay [6] was greater than 100 µM in each case. Also, the TGI in assay [8], in assay [9] and in [7] was greater than 100 µM each time.
On to `CC(C)c1ccccc1NC(=O)CCc1n[nH]c(=S)o1`, for which the TGI in assay [1], in [2], in [3], in assay [5], in [6] and in [8] was greater than 100 µM each time. Also, the TGI in [9] and in [7] was greater than 100 µM each time.
On to `S=C(Nc1ccccc1)N(/N=C/C=C/c1ccccc1)c1nnc(-c2ccccc2)c(-c2ccccc2)n1`, for which the TGI in [1], in assay [2], in assay [3], in assay [4], in assay [5] and in [8] was greater than 100 µM throughout. The figures for the TGI in [9] and in [7] were 83.8 µM and greater than 100 µM, respectively.
Regarding `Cn1c2c(c3ccccc31)C1CCCCCCC1C1C(=O)OC(=O)C21` (stereo not given), the TGI in assay [1] is 65.8 µM; in assay [2], greater than 100 µM; in assay [3], greater than 100 µM; in assay [5], greater than 100 µM; in assay [6] it was greater than 100 µM; in assay [8], greater than 100 µM. Further, the TGI in assay [7] was greater than 100 µM.
Turning to `COc1cc(C(Cc2ccccc2)NC(C)=O)oc(=O)c1` (stereo not given), the TGI in assay [2], in assay [3], in assay [4], in [5], in [6] and in [8] was greater than 100 µM each time. Further, the TGI in assay [9] and in assay [7] was greater than 100 µM throughout.
As to `CNC(=O)N(C)N=NCCCl`, the TGI in [1], in assay [2], in [3], in assay [4], in [5] and in [6] was greater than 100 µM each time. Moreover, the TGI in [8], in assay [9] and in [7] was greater than 100 µM each time.
As for `CCOc1ccccc1C=C1c2ccccc2C(=O)c2ccccc21`, the TGI in [1] is 29.4 µM; in assay [2], 61.4 µM; in [3], greater than 100 µM; in [4], 11.9 µM; in [5], greater than 100 µM; in [6], greater than 100 µM. In addition, the TGI is 72.9 µM in assay [9] and greater than 100 µM in assay [7].
In the case of `CC1=C(C(=O)Nc2ccccc2)C(c2ccccc2)C(C(=O)Nc2ccccc2)=C(C)N1`, the TGI in assay [1], in assay [2], in assay [3], in assay [4], in assay [5] and in [6] was greater than 100 µM in each case. Further, the TGI in assay [8], in assay [9] and in assay [7] was greater than 100 µM in each case.
Take `CN(C)c1ccc(C(C=C2c3ccccc3Sc3ccccc32)=C(C#N)C#N)cc1`: the TGI in [1], in assay [2], in assay [3], in [4], in [5] and in assay [6] was greater than 100 µM each time. The TGI in [8] and in assay [7] was greater than 100 µM in each case.
Regarding `O=C(CCn1[nH]c(=O)c(Cl)c(Cl)c1=O)NO`, the TGI in assay [1], in [2], in assay [3], in assay [4], in assay [5] and in assay [6] was greater than 100 µM in each case. Besides, the TGI in assay [8] and in [7] was greater than 100 µM throughout.
